How the values were obtained:
[1] = test system: α1-acid glycoprotein (AGP); assay: HPLC on AGP-based chiral stationary phase (ChromTech Chiral-AGP column); assay type: binding, human; settings: 10 mM pH 7 phosphate buffer, 25 °C
Description: HPLC using a protein-based chiral stationary phase is a fully automated method for obtaining rapid information about the binding of compounds to the respective proteins. Enantioseparation occurs in the case of unequal binding constants of the individual enantiomers to the immobilized proteins, thus allowing enantioselective binding to be characterized even when a racemic mixture was injected. As a preliminary step, the enantiospecific binding was investigated on columns containing AGP and HSA in various alcohol:buffer mixtures. A pH 7 phosphate buffer was employed as the aqueous part of the mobile phase, while for the organic part, three different alcohols were evaluated. […]
Chromatographic measurements were carried out on two separate HPLC systems. The AGP binding study was performed on a Waters 2695e chromatographic system paired with a Waters 2996 PDA detector, controlled by Empower 3 FR5 (Waters Corp., Milford, MA, USA), while the HSA binding study was performed on an Agilent 1100 HPLC system, consisting of an inline degasser (G1322A), a quaternary pump (G1311A), an automatic injector (G1329A) paired with sample thermostat (G1330A), a column thermostat (G1316A), and a diode array detector (G1315A) with Agilent Chemstation B04.03-SP2 software (Agilent, Bronnwald, Germany). For the binding studies, two protein-based chiral stationary phases were utilized. The chromatographic binding study for AGP was conducted on a ChromTech Chiral-AGP column (150 mm × 4.0 mm; ChromTech Ltd., Congleton, UK), while the binding study for HSA was performed on a Daicel Chiralpak HSA column (50 mm × 4.0 mm; Daicel Corp., Osaka, Japan). The detection wavelength was 210 nm for all measurements. The stock solutions of PPIs were prepared at a concentration of 1 mg/mL in MeOH. Subsequent dilutions were prepared using water. The injected samples were mixed and diluted from the stock solutions. The final concentration for the eutomer was 0.2 mg/mL, and for the distomer, it was 0.1 mg/mL. A volume of 2 μL was injected. To mitigate the instability of PPIs in aqueous solutions, the samples were kept at a temperature of 4 °C.

[2] = biological target: T1, human serum albumin (HSA) (Homo sapiens, UniProt P02768); assay: van 't Hoff thermodynamic analysis on HSA column; assay type: binding; settings: for Δ(ΔG°) / Δ(ΔH°) / Δ(ΔS°): pH 7, 95:5 buffer:IPA, 10–30 °C
T1 sequence (P02768 25-609): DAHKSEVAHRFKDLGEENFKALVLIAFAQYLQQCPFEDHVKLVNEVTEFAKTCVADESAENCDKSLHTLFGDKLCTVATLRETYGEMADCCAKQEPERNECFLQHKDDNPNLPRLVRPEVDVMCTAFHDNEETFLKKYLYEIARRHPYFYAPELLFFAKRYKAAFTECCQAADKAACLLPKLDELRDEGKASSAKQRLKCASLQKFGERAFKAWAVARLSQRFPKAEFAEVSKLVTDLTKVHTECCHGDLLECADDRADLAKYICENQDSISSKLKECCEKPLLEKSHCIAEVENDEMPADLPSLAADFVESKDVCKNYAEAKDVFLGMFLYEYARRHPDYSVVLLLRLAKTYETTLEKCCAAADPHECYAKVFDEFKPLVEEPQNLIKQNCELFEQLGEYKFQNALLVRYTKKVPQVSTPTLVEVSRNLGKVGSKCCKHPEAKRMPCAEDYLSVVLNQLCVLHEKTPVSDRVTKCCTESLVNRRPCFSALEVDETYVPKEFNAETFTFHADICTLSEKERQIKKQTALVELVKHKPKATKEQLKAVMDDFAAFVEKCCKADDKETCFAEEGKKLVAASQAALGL
Description: The temperature effect was investigated at pH 7 and a 95:5 buffer:IPA eluents ratio, between 10 and 30 °C on both columns. […] The determination of thermodynamic parameters can provide valuable insights into the process of enantiodiscrimination, including its mechanistic aspects. The applied classical van ’t Hoff methodology postulates the existence of solely enantioselective interaction sites on the stationary phase. Nonetheless, it should be emphasized that a more realistic approach would encompass both enantioselective and non-enantioselective interactions. The isoenantioselective temperatures (Tiso) were calculated by dividing Δ(ΔH°) by Δ(ΔS°). At this temperature, enthalpy and entropy compensations negate each other, resulting in the coelution of the two enantiomers and no separation. The Q values (Q = Δ(ΔH°)/T × Δ(ΔS°)298K) were used for visualizing the relative contribution of enthalpic and entropic terms to the free energy of adsorption. If the Q values were smaller than 1, the enantioseparation was controlled by entropy to a higher extent.
Classical van ’t Hoff analysis was applied to determine the thermodynamic parameters. Van ’t Hoff plots were constructed by plotting the natural logarithm of the retention factor as a function of the inverse of the absolute temperature (thermodynamic temperature) over a temperature range of 10–30 °C:(5) […]
In the equation, R represents the universal gas constant, T represents the absolute temperature in Kelvin, and k represents the retention factor of the enantiomers. ΔH° stands for the standard enthalpy, while ΔS° represents the standard entropy change of transfer of the solute from the mobile phase to the stationary phase. Φ is the phase ratio of the column. If ΔH° remains constant within the selected temperature range, a linear relationship can be observed between lnk and 1/T. The slope of this relationship is −ΔH°/R, and the intercept is ΔS°/R + ln Φ. Since the value of the phase ratio is rarely known, ΔS°* values (ΔS°* = ΔS° + Rln Φ) are often used to account for the uncertainty in Φ. Similarly, the difference in the change of standard enthalpy, Δ(ΔH°), and standard entropy, Δ(ΔS°), for the two enantiomers was calculated as follows:(6) lnα=−ΔΔH°/RT+ΔΔS°/R

[3] = biological target: T1, human serum albumin (HSA); assay: Displacement chromatography on HSA column with warfarin and ibuprofen as competitors; assay type: binding; settings: IPA:10 mM pH 7 phosphate buffer 1:99, 25 °C
Description: For identification of the binding site of HSA, a displacement chromatography and fluorescence displacement study were performed. In the case of chromatography, to the mobile phase, increasing concentrations of the competitors, warfarin and ibuprofen, that are known to bind to specific binding sites on HSA, Sudlow site I and Sudlow site II, respectively, were added. In the case of the fluorescence displacement study, the fluorescence quenching data of the PPI-HSA system in the presence of warfarin and ibuprofen were investigated.
(Chromatographic parameter: Column temperature: 25 °C,
mobile phase: IPA : 10 mM pH 7 sodium phosphate buffer 1:99, flow rate: 0.7 mL/min, detection

[4] = difference between the two enantiomers

Compound | k1 retention factor (first-eluting enantiomer) ([1]; 2.5% IPA) | k2 retention factor (second-eluting enantiomer) ([1]; 2.5% IPA) | k1 retention factor (first-eluting enantiomer) ([1]; 5% EtOH) | k2 retention factor (second-eluting enantiomer) ([1]; 5% EtOH) | k1 retention factor (first-eluting enantiomer) ([1]; 5% IPA) | k2 retention factor (second-eluting enantiomer) ([1]; 5% IPA) | k1 retention factor (first-eluting enantiomer) ([1]; 5% MeOH) | k2 retention factor (second-eluting enantiomer) ([1]; 5% MeOH) | k1 retention factor (first-eluting enantiomer) ([1]; 7.5% EtOH) | k2 retention factor (second-eluting enantiomer) ([1]; 7.5% EtOH) | k2 retention factor (second-eluting enantiomer) ([1]; 7.5% IPA) | k1 retention factor (first-eluting enantiomer) ([1]; 7.5% MeOH) | k2 retention factor (second-eluting enantiomer) ([1]; 7.5% MeOH) | k1 retention factor (first-eluting enantiomer) ([1]; 10% EtOH) | k2 retention factor (second-eluting enantiomer) ([1]; 10% EtOH) | k1 retention factor (first-eluting enantiomer) ([1]; 10% IPA) | k2 retention factor (second-eluting enantiomer) ([1]; 10% IPA) | k1 retention factor (first-eluting enantiomer) ([1]; 10% MeOH) | k2 retention factor (second-eluting enantiomer) ([1]; 10% MeOH) | k1 retention factor (first-eluting enantiomer) ([1]; 12.5% IPA) | further results
Cc1c(OCC(F)(F)F)ccnc1C[S+]([O-])c1nc2ccccc2[nH]1 (stereo not shown) [Lansoprazole, lansoprazole] | 15.75 | 19.61 | 14.52 | 18.43 | 6.88 | 9.12 | 22.63 | 28.55 | 8.24 | 10.64 | 5.28 | 14.63 | 18.79 | 5.13 | 6.62 | 2.67 | 3.47 | 9.96 | 12.56 | 1.95 | k1 retention factor (first-eluting enantiomer) ([1]; 7.5% IPA): 4.00; k2 retention factor (second-eluting enantiomer) ([1]; 12.5% IPA): 2.47; k1 retention factor (first-eluting enantiomer) ([1]; 15% EtOH): 2.54; k2 retention factor (second-eluting enantiomer) ([1]; 15% EtOH): 3.21; k1 retention factor (first-eluting enantiomer) ([1]; 15% IPA): 1.48; k2 retention factor (second-eluting enantiomer) ([1]; 15% IPA): 1.83; k1 retention factor (first-eluting enantiomer) ([1]; 15% MeOH): 7.02; k2 retention factor (second-eluting enantiomer) ([1]; 15% MeOH): 8.75; Q ([2]; Q = Δ(ΔH°)/T × Δ(ΔS°)298K): 1.4; Δ(ΔG°) [2, 4]: -0.17 kcal/mol; Δ(ΔH°) [2, 4]: -0.669 kcal/mol; Δ(ΔS°) [2, 4]: −7.2 J/molK; Tiso isoenantioselective temperature ([2]; Δ(ΔH°)/Δ(ΔS°)): 128.9 °C
COc1ccc2[nH]c([S+]([O-])Cc3ncc(C)c(OC)c3C)nc2c1 (stereo not shown) [Omeprazole, omeprazole] | 13.24 | 16.18 | 12.69 | 15.14 | 5.46 | 5.46 | 25.74 | 37.33 | 6.57 | 7.20 | 2.88 | 15.56 | 21.41 | 4.02 | 4.02 | 1.87 | 1.87 | 9.95 | 13.05 | 1.33 | k retention factor ([3]; ibuprofen 0 mM): 9.53; k retention factor ([3]; ibuprofen 0.01 mM): 7.96; k retention factor ([3]; ibuprofen 0.05 mM): 6.31; k retention factor ([3]; ibuprofen 0.1 mM): 5.22; k retention factor ([3]; warfarin 0 mM): 9.53; k retention factor ([3]; warfarin 0.01 mM): 8.57; k retention factor ([3]; warfarin 0.05 mM): 7.71; k retention factor ([3]; warfarin 0.1 mM): 6.98; k1 retention factor (first-eluting enantiomer) ([1]; 7.5% IPA): 2.88; k2 retention factor (second-eluting enantiomer) ([1]; 12.5% IPA): 1.33; k1 retention factor (first-eluting enantiomer) ([1]; 15% EtOH): 1.81; k2 retention factor (second-eluting enantiomer) ([1]; 15% EtOH): 1.81; k1 retention factor (first-eluting enantiomer) ([1]; 15% IPA): 1.01; k2 retention factor (second-eluting enantiomer) ([1]; 15% IPA): 1.01; k1 retention factor (first-eluting enantiomer) ([1]; 15% MeOH): 6.70; k2 retention factor (second-eluting enantiomer) ([1]; 15% MeOH): 8.43
Cc1c(OCC(F)(F)F)ccnc1C[S@@+]([O-])c1nc2ccccc2[nH]1 [R-lansoprazole, dexlansoprazole] | – | – | – | – | – | – | – | – | – | – | – | – | – | – | – | – | – | – | – | – | k retention factor ([3]; ibuprofen 0 mM): 18.27; k retention factor ([3]; ibuprofen 0.01 mM): 13.98; k retention factor ([3]; ibuprofen 0.05 mM): 10.41; k retention factor ([3]; ibuprofen 0.1 mM): 7.60; k retention factor ([3]; warfarin 0 mM): 18.27; k retention factor ([3]; warfarin 0.01 mM): 14.84; k retention factor ([3]; warfarin 0.05 mM): 12.07; k retention factor ([3]; warfarin 0.1 mM): 10.51; Δ(ΔG°) ([2]; single enantiomer): -1.39 kcal/mol; Δ(ΔH°) ([2]; single enantiomer): -2.01 kcal/mol; Δ(ΔS°) ([2]; single enantiomer): −8.7 J/molK
COCCCOc1ccnc(C[S+]([O-])c2nc3ccccc3[nH]2)c1C (stereo not shown) [Rabeprazole, rabeprazole] | 14.89 | 21.66 | 13.04 | 20.84 | 6.68 | 7.89 | 20.89 | 42.82 | 7.21 | 10.50 | 3.90 | 12.90 | 26.14 | 4.39 | 5.89 | 2.47 | 2.47 | 8.63 | 16.71 | 1.72 | k retention factor ([3]; ibuprofen 0 mM): 7.21; k retention factor ([3]; ibuprofen 0.01 mM): 6.67; k retention factor ([3]; ibuprofen 0.05 mM): 5.87; k retention factor ([3]; ibuprofen 0.1 mM): 5.05; k retention factor ([3]; warfarin 0 mM): 7.21; k retention factor ([3]; warfarin 0.01 mM): 5.81; k retention factor ([3]; warfarin 0.05 mM): 4.98; k retention factor ([3]; warfarin 0.1 mM): 4.73; k2 retention factor (second-eluting enantiomer) ([1]; 12.5% IPA): 1.72; k1 retention factor (first-eluting enantiomer) ([1]; 15% EtOH): 2.11; k2 retention factor (second-eluting enantiomer) ([1]; 15% EtOH): 2.48; k1 retention factor (first-eluting enantiomer) ([1]; 15% IPA): 1.27; k2 retention factor (second-eluting enantiomer) ([1]; 15% IPA): 1.27; k1 retention factor (first-eluting enantiomer) ([1]; 15% MeOH): 5.97; k2 retention factor (second-eluting enantiomer) ([1]; 15% MeOH): 11.00

Reference: article PMC11477000, “Enantioselective Binding of Proton Pump Inhibitors to Alpha1-Acid Glycoprotein and Human Serum Albumin—A Chromatographic, Spectroscopic, and In Silico Study” (International Journal of Molecular Sciences, 2024)
